pIC50: −log10 of the molar value.
Assays:
[1] = test system: cocultures of keratinocytes and of melanocytes; assay: Inhibition of melanin synthesis (ratio of thiouracil to leucine incorporation) in keratinocyte/melanocyte cocultures; type: cell-based
Experimental: (§1) The modulating effect with regard to melanogenesis of the compounds tested was measured according to the method described in Patent FR-A-2 734 825 and in the paper by R. Schmidt, P. Krien and M. Régnier, Anal. Biochem., 235(2), 113-18, 1996. This test is carried out on cocultures of keratinocytes and of melanocytes.
(§2) For the compound tested, the following were determined:
the inhibitory activity with regard to the synthesis of melanin, by estimating the ratio of the incorporation of thiouracil to the incorporation of leucine, with respect to 100% of the control (the control corresponds to the test carried out without compound to be tested). The IC50 (concentration at which the synthesis of melanin is inhibited by 50%) values were determined.

[2] = test system: cocultures of keratinocytes and of melanocytes; assay: Cytotoxicity by estimating the incorporation of leucine in keratinocyte/melanocyte cocultures; type: cell-based
Experimental: as §1, §2
the cytotoxicity, by estimating the incorporation of leucine, […]

Compound | inhibition at 100 µM ([1]; at the concentration of 100 μM, read-out: melanin synthesis inhibited) | Cytotoxicity [2] | pIC50 ([1]; ratio of thiouracil to leucine incorporation, with respect to 100% of the control, read-out: IC50 (concentration at which the synthesis of melanin is inhibited by 50%))
Nc1ncnc2c1ncn2[C@@H]1O[C@H](CO)[C@@H](O)[C@H]1O [adenosine, reference compound] | 20% | – | –
CC(=O)OC[C@H]1O[C@@H](n2cnc3c(N)ncnc32)[C@@H]2OC(C)(C)O[C@@H]21 [Compound H, 2′,3′-isopropylidene-5′-acetyladenosine] | – | No | 4.46

From patent publication US20070258921A1, “PROCESS FOR DEPIGMENTING THE SKIN” (L'OREAL, priority 2006, published 2007)
